Test results reported in patent US4000281A, “Pyrazole derivatives” (priority 1971, dated 1976).

Tested on: Influenza virus Maryland B
Assay: Mouse-Survival Test (Test No. 1), Influenza Maryland B
Assay type: in vivo, mice
Conditions: for Survival Percent: virus dose 79 multiples of LD50; for S.I.: virus dose 79 multiples of LD50, significant if >1.24

Structure (SMILES): CCc1[nH]nc(-c2ccncc2)c1-c1ccccc1O [Compound A, 3-(4-pyridyl)-4-(2-hydroxyphenyl)-5-ethylpyrazole]
- Survival Percent (500 mg/kg IP): 10%
- S.I. (500 mg/kg IP): 1.47
- Survival Percent (500 mg/kg PO): 12%
- S.I. (500 mg/kg PO): 1.52
